Test results published in patent publication US20250179061A1 (SIRONAX LTD., priority 2022, published 2025).

tested on: HT-29 cells; test: HT-29 necroptosis cell viability assay (TNF-α/SMAC mimetic/zVAD-FMK, CellTiter-Glo); assay type: cell-based; details: Homo sapiens, HT-29, HT-29 cells, necroptosis induced by TNF-α/SMAC mimetic/zVAD-FMK, CellTiter-Glo; read-out: Activity (IC50 class)
Summary of the method: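 Necroptosis was triggered by TNF-α (10 ng/ml), SMAC mimetic (6 μM) and zVAD-FMK (10 μM) in serum-free medium during 20 h compound exposure (10 concentrations, threefold steps) of HT-29 cells. IC50 from duplicate dose-responses uses CellTiter-Glo ATP luminescence as viability read-out.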

Structure (SMILES) | IC50 [nM]
Cc1ncsc1Oc1ncc(-n2ncn(Cc3c(F)cccc3F)c2=O)cc1F [Example 644, 4-(2,6-difluorobenzyl)-2-(5-fluoro-6-((4-methylthiazol-5-yl)oxy)pyridin-3-y1)-2,4-dihydro-3H-1,2,4-triazol-3-one] | < 100
Cc1nc(C(N)=O)sc1Oc1ncc(-n2ncn(Cc3c(F)cccc3F)c2=O)cc1F [Example 643, 5-((5-(4-(2,6-difluorobenzyl)-5-oxo-4,5-dihydro-1H-1,2,4-triazol-1-yl)-3-fluoropyridin-2-yl)oxy)-4-methylthiazole-2-carboxamide] | < 100
Cc1nc(C(N)=O)sc1Oc1ccc(-n2nc3n(c2=O)C(c2ccc(F)cc2)CC3)cc1F (stereo not shown) [Example 667, 5-(2-fluoro-4-(5-(4-fluorophenyl)-3-oxo-6,7-dihydro-3H-pyrrolo[1,2-c][1,2,4]triazol-2(5H)-yl)phenoxy)-4-methylthiazole-2-carboxamide] | < 100
Cc1nc(C=O)sc1Oc1ccc(-n2ncn(Cc3c(F)cccc3F)c2=O)cc1F [Example 634, 5-[4-[4-[(2,6-difluorophenyl)methyl]-5-oxo-1,2,4-triazol-1-yl]-2-fluoro-phenoxy]-4-methyl-thiazole-2-carbaldehyde] | < 100
O=c1n(Cc2c(F)cccc2F)cnn1-c1ccc(Oc2ccnc(N3CC4(CCOCC4)C3)c2F)cc1 [Example 672, 4-(2,6-difluorobenzyl)-2-(4-((3-fluoro-2-(7-oxa-2-azaspiro[3.5]nonan-2-yl)pyridin-4-yl)oxy)phenyl)-2,4-dihydro-3H-1,2,4-triazol-3-one] | < 100

same assay, conditions: Homo sapiens, HT-29, HT-29 necroptosis cell viability assay; class symbols for IC50; read-out: Activity

Structure (SMILES) | IC50 [nM]
Cc1nc(C2(O)COC2)sc1Oc1ccc(-n2nc3n(c2=O)[C@H](c2ccccc2)CC3)cc1F [Example 114, (S)-2-(3-fluoro-4-((2-(3-hydroxyoxetan-3-yl)-4-methylthiazol-5-yl)oxy)phenyl)-5-phenyl-2,5,6,7-tetrahydro-3H-pyrrolo[2,1-c][1,2,4]triazol-3-one] | < 100
CCOC(=O)c1c(C)c(C)nn1Cc1ccc(-n2ncn(Cc3c(F)cccc3F)c2=O)cc1F [Example 203, ethyl 1-(4-(4-(2,6-difluorobenzyl)-5-oxo-4,5-dihydro-1H-1,2,4-triazol-1-yl)-2-fluorobenzyl)-3,4-dimethyl-1H-pyrazole-5-carboxylate] | 100 to 1000
CCOC1CN(c2nn(C)c(Oc3ccc(-n4ncn(Cc5c(F)cccc5F)c4=O)cc3)c2N)C1 [Example 517, 2-(4-((4-amino-3-(3-ethoxyazetidin-1-yl)-1-methyl-1H-pyrazol-5-yl)oxy)phenyl)-4-(2,6-difluorobenzyl)-2,4-dihydro-3H-1,2,4-triazol-3-one] | 1000 to 10000
CC1(OC(F)(F)F)CN(c2cc(Oc3ccc(-n4ncn(Cc5c(F)cccc5F)c4=O)cc3F)c(F)cn2)C1 [Example 505, 4-(2,6-difluorobenzyl)-2-(3-fluoro-4-((5-fluoro-2-(3-methyl-3-(trifluoromethoxy)azetidin-1-yl)pyridin-4-yl)oxy)phenyl)-2,4-dihydro-3H-1,2,4-triazol-3-one] | < 100
Cc1ncc(C#N)cc1Oc1ccc(-n2ncn(Cc3c(F)cccc3F)c2=O)cc1 [Example 518, 5-(4-(4-(2,6-difluorobenzyl)-5-oxo-4,5-dihydro-1H-1,2,4-triazol-1-yl)phenoxy)-6-methylnicotinonitrile] | 1000 to 10000
Cc1cnn(C)c1Oc1ccc(-n2nc3n(c2=O)C(c2ccccc2)CC3)cc1F (stereo not shown) [Example 175, 2-(4-((1,4-dimethyl-1H-pyrazol-5-yl)oxy)-3-fluorophenyl)-5-phenyl-2,5,6,7-tetrahydro-3H-pyrrolo[2,1-c][1,2,4]triazol-3-one] | < 100
Cc1nc(C(N)=O)sc1Oc1ccc(-n2ncn(Cc3cc(Cl)ccn3)c2=O)cc1F [Example 565] | 100 to 1000
CC1(Nc2cc(Oc3ccc(-n4ncn(Cc5c(F)cccc5F)c4=O)cc3)ccn2)COC1 [Example 531, 4-(2,6-difluorobenzyl)-2-(4-((2-((3-methyloxetan-3-yl)amino)pyridin-4-yl)oxy)phenyl)-2,4-dihydro-3H-1,2,4-triazol-3-one] | > 10000
Cc1nn(CC2COC2)c(C)c1Oc1ccc(-n2ncn(Cc3c(F)cccc3F)c2=O)cc1F [Example 179, 4-(2,6-difluorobenzyl)-2-(4-((3,5-dimethyl-1-(oxetan-3-ylmethyl)-1H-pyrazol-4-yl)oxy)-3-fluorophenyl)-2,4-dihydro-3H-1,2,4-triazol-3-one] | < 100
Cc1ccn(Cc2ccc(-n3ncn(Cc4c(F)cccc4F)c3=O)cc2)n1 [Example 192, 4-(2,6-difluorobenzyl)-2-(4-((3-methyl-1H-pyrazol-1-yl)methyl)phenyl)-2,4-dihydro-3H-1,2,4-triazol-3-one] | < 100

same assay, conditions: Homo sapiens, HT-29, HT-29 necroptosis cell viability, IC50 class symbols; read-out: Activity

Structure (SMILES) | IC50 [nM]
CCOC1CN(c2nccc(Oc3ccc(-n4nc(C)n(Cc5ccccc5)c4=O)cc3)c2F)C1 [Example 304, 4-benzyl-2-[4-[[2-(3-ethoxyazetidin-1-yl)-3-fluoro-4-pyridyl]oxy]phenyl]-5-methyl-1,2,4-triazol-3-one] | 100 to 1000
O=c1n(Cc2c(F)cccc2F)cnn1-c1ccc(Oc2cncc(N3CC4(CCOCC4)C3)c2)cc1 [Example 285, 2-(4-((5-(7-oxa-2-azaspiro[3.5]nonan-2-yl)pyridin-3-yl)oxy)phenyl)-4-(2,6-difluorobenzyl)-2,4-dihydro-3H-1,2,4-triazol-3-one] | < 100
N#CC12CC(Nc3nccc(Oc4ccc(-n5ncn(Cc6c(F)cccc6F)c5=O)cc4F)c3F)(C1)C2 [Example 246, 3-((4-(4-(4-(2,6-difluorobenzyl)-5-oxo-4,5-dihydro-1H-1,2,4-triazol-1-yl)-2-fluorophenoxy)-3-fluoropyridin-2-yl)amino)bicyclo[1.1.1]pentane-1-carbonitrile] | < 100
Cn1c(Oc2ccc(-n3nc(Cl)n(Cc4ccccc4)c3=O)cc2)cccc1=O [Example 429, 6-(4-(4-benzyl-3-chloro-5-oxo-4,5-dihydro-1H-1,2,4-triazol-1-yl)phenoxy)-1-methylpyridin-2(1H)-one] | 100 to 1000
O=c1n(-c2ccc(Oc3cccnc3)cc2)nc(Cl)n1Cc1ccccc1 [Example 427, 4-benzyl-5-chloro-2-(4-(pyridin-3-yloxy)phenyl)-2,4-dihydro-3H-1,2,4-triazol-3-one] | < 100
Cc1c(C(C)(C)O)noc1Oc1ccc(-n2ncn(Cc3c(F)cccc3F)c2=O)cc1F [Example 472, 4-(2,6-difluorobenzyl)-2-(3-fluoro-4-((3-(2-hydroxypropan-2-yl)-4-methylisoxazol-5-yl)oxy)phenyl)-2,4-dihydro-3H-1,2,4-triazol-3-one] | 100 to 1000
COC1(C#N)CN(c2cc(Oc3ccc(-n4ncn(Cc5c(F)cccc5F)c4=O)cc3F)c(Cl)cn2)C1 [Example 231, 1-(5-chloro-4-(4-(4-(2,6-difluorobenzyl)-5-oxo-4,5-dihydro-1H-1,2,4-triazol-1-yl)-2-fluorophenoxy)pyridin-2-yl)-3-methoxyazetidine-3-carbonitrile] | < 100
Cc1cc(-n2ncn(Cc3c(F)cccc3F)c2=O)ccc1Oc1cc(NC23CC(C#N)(C2)C3)ncc1F [Example 308, 3-((4-(4-(4-(2,6-difluorobenzyl)-5-oxo-4,5-dihydro-1H-1,2,4-triazol-1-yl)-2-methylphenoxy)-5-fluoropyridin-2-yl)amino)bicyclo[1.1.1]pentane-1-carbonitrile] | 100 to 1000
COC1(C#N)CN(c2cc(Oc3ccc(-n4ncn(Cc5c(F)cccc5F)c4=O)cc3Cl)ccn2)C1 [Example 314, 1-(4-(2-chloro-4-(4-(2,6-difluorobenzyl)-5-oxo-4,5-dihydro-1H-1,2,4-triazol-1-yl)phenoxy)pyridin-2-yl)-3-methoxyazetidine-3-carbonitrile] | < 100

same assay, conditions: Homo sapiens; HT-29 cells stimulated with TNF-α (10 ng/ml), SMAC mimetic (6 μM) and zVAD-FMK (10 μM); 20 hours; CellTiter-Glo ATP luminescence; geometric mean IC50 from 10 points; read-out: Activity

Structure (SMILES) | IC50 [nM]
Cc1csc(COc2ccc(-n3ncn(Cc4c(F)cccc4F)c3=O)cc2)n1 [Example 98, 4-(2,6-difluorobenzyl)-2-(4-((4-methylthiazol-2-yl)methoxy)phenyl)-2,4-dihydro-3H-1,2,4-triazol-3-one] | 100 to 1000
Cc1nc(C(=O)N2C[C@@H](C)O[C@@H](C)C2)sc1Oc1ccc(-n2nc3n(c2=O)[C@H](c2ccccc2)CC3)cc1F [Example 20, (S)-2-(4-((2-((2S,6R)-2,6-dimethylmorpholine-4-carbonyl)-4-methylthiazol-5-yl)oxy)-3-fluorophenyl)-5-phenyl-2,5,6,7-tetrahydro-3H-pyrrolo[2,1-c][1,2,4]triazol-3-one] | < 100
COC(=O)c1nc(C)c(Oc2ccc(-n3ncn(Cc4c(F)cccc4C#N)c3=O)cc2F)s1 [Example 106, methyl 5-(4-(4-(2-cyano-6-fluorobenzyl)-5-oxo-4,5-dihydro-1H-1,2,4-triazol-1-yl)-2-fluorophenoxy)-4-methylthiazole-2-carboxylate] | < 100
Cc1nc(C(=O)NCCN2CCOCC2)sc1Oc1ccc(-n2ncn(Cc3c(F)cccc3F)c2=O)cc1F [Example 24, 5-(4-(4-(2,6-diflurobenzyl)-5-oxo-4,5-dihydro-1H-1,2,4-triazol-1-yl)-2-fluorophenoxy)-4-methyl-N-(2-morpholinoethyl)thiazole-2-carboxamide] | < 100
Cc1nc(C(N)=O)sc1Oc1ccc(-n2nc3n(c2=O)[C@H](C2CCCC2)CC3)cc1F (single isomer, unassigned) [Example 702] | < 100
Cc1nc(N2C[C@H](N)[C@@H]2C)sc1Oc1ccc(-n2ncn(Cc3c(F)cccc3F)c2=O)cc1 [Example 73, 2-(4-((2-((2S,3S)-3-amino-2-methylazetidin-1-yl)-4-methylthiazol-5-yl)oxy)phenyl)-4-(2,6-difluorobenzyl)-2,4-dihydro-3H-1,2,4-triazol-3-one] | < 100
Cc1cc(C(N)=O)sc1Oc1ccc(-n2nc3n(c2=O)[C@H](c2ccccc2)CC3)cc1F (single isomer, unassigned) [Example 689] | < 100
